Test results from PubChem BioAssay AID1259407 (Chemical Carcinogenesis Research Information System (CCRIS), 2018).
Calls of active or inactive are those of the source. How the calls were made is not given here.

System: CCRIS mutagenicity, Ames/micronucleus/aberration tests
Assay: CCRIS mutagenicity studies
[1] = Test System: AMES SALMONELLA TYPHIMURIUM, Strain/Indicator: TA97, Metabolic Activation: HAMSTER, LIVER, S-9, AROCLOR 1254 (10%), Method: PREINCUBATION
[2] = Test System: AMES SALMONELLA TYPHIMURIUM, Strain/Indicator: TA97, Metabolic Activation: NONE, Method: PREINCUBATION
[3] = Test System: AMES SALMONELLA TYPHIMURIUM, Strain/Indicator: TA97, Metabolic Activation: RAT, LIVER, S-9, AROCLOR 1254 (10%), Method: PREINCUBATION
[4] = Test System: AMES SALMONELLA TYPHIMURIUM, Strain/Indicator: TA98, Metabolic Activation: HAMSTER, LIVER, S-9, AROCLOR 1254 (10%), Method: PREINCUBATION
[5] = Test System: AMES SALMONELLA TYPHIMURIUM, Strain/Indicator: TA98, Metabolic Activation: HAMSTER, LIVER, S-9, AROCLOR 1254 (30%), Method: PREINCUBATION
[6] = Test System: AMES SALMONELLA TYPHIMURIUM, Strain/Indicator: TA98, Metabolic Activation: NONE, Method: PREINCUBATION
[7] = Test System: AMES SALMONELLA TYPHIMURIUM, Strain/Indicator: TA98, Metabolic Activation: RAT, LIVER, S-9, AROCLOR 1254 (10%), Method: PREINCUBATION
[8] = Test System: AMES SALMONELLA TYPHIMURIUM, Strain/Indicator: TA98, Metabolic Activation: RAT, LIVER, S-9, AROCLOR 1254 (30%), Method: PREINCUBATION
[9] = Test System: AMES SALMONELLA TYPHIMURIUM, Strain/Indicator: TA100, Metabolic Activation: HAMSTER, LIVER, S-9, AROCLOR 1254 (10%), Method: PREINCUBATION
[10] = Test System: AMES SALMONELLA TYPHIMURIUM, Strain/Indicator: TA100, Metabolic Activation: HAMSTER, LIVER, S-9, AROCLOR 1254 (30%), Method: PREINCUBATION
[11] = Test System: AMES SALMONELLA TYPHIMURIUM, Strain/Indicator: TA100, Metabolic Activation: NONE, Method: PREINCUBATION
[12] = Test System: AMES SALMONELLA TYPHIMURIUM, Strain/Indicator: TA100, Metabolic Activation: RAT, LIVER, S-9, AROCLOR 1254 (10%), Method: PREINCUBATION
[13] = Test System: AMES SALMONELLA TYPHIMURIUM, Strain/Indicator: TA100, Metabolic Activation: RAT, LIVER, S-9, AROCLOR 1254 (30%), Method: PREINCUBATION
[14] = Test System: AMES SALMONELLA TYPHIMURIUM, Strain/Indicator: TA1535, Metabolic Activation: HAMSTER, LIVER, S-9, AROCLOR 1254 (10%), Method: PREINCUBATION
[15] = Test System: AMES SALMONELLA TYPHIMURIUM, Strain/Indicator: TA1535, Metabolic Activation: NONE, Method: PREINCUBATION
[16] = Test System: AMES SALMONELLA TYPHIMURIUM, Strain/Indicator: TA1535, Metabolic Activation: RAT, LIVER, S-9, AROCLOR 1254 (10%), Method: PREINCUBATION
[17] = Test System: AMES SALMONELLA TYPHIMURIUM, Strain/Indicator: TA98, Metabolic Activation: NONE, Method: STANDARD PLATE
[18] = Test System: AMES SALMONELLA TYPHIMURIUM, Strain/Indicator: TA100, Metabolic Activation: NONE, Method: STANDARD PLATE

| SMILES | mutagenic call [1] | mutagenic call [2] | mutagenic call [3] | mutagenic call [4] | mutagenic call [5] | mutagenic call [6] | mutagenic call [7] | mutagenic call [8] | mutagenic call [9] | mutagenic call [10] | mutagenic call [11] | mutagenic call [12] | mutagenic call [13] | mutagenic call [14] | mutagenic call [15] | mutagenic call [16] | mutagenic call [17] | mutagenic call [18] | also measured |
| --- | --- | --- | --- | --- | --- | --- | --- | --- | --- | --- | --- | --- | --- | --- | --- | --- | --- | --- | --- |
| Oc1c(Cl)c(Cl)cc(Cl)c1Cl | inactive; negative | inactive; negative | inactive; negative | inactive; negative | inactive; negative | inactive; negative | inactive; negative | inactive; negative | inactive; negative | inactive; negative | inactive; negative | inactive; negative | inactive; negative | inactive; negative | inactive; negative | inactive; negative | – | – | mutagenic call (End Point: IN VITRO CHROMOSOMAL ABERRATIONS, Test System: CHINESE HAMSTER LUNG CELLS (CHL), Metabolic Activation: NONE): inactive; negative; mutagenic call (End Point: IN VITRO CHROMOSOMAL ABERRATIONS, Test System: CHINESE HAMSTER LUNG CELLS (CHL), Metabolic Activation: RAT, LIVER, S-9, KC-400): active; positive (structural changes); mutagenic call (End Point: IN VITRO CHROMOSOMAL ABERRATIONS, Test System: CHINESE HAMSTER OVARY CELLS (CHO), Metabolic Activation: NONE): inactive; negative; mutagenic call (End Point: IN VITRO CHROMOSOMAL ABERRATIONS, Test System: CHINESE HAMSTER OVARY CELLS (CHO), Metabolic Activation: RAT, LIVER, S-9, AROCLOR 1254): active; positive (structural changes); mutagenic call (Test System: AMES SALMONELLA TYPHIMURIUM, Strain/Indicator: TA97, Metabolic Activation: HAMSTER, LIVER, S-9, AROCLOR 1254 (30%), Method: PREINCUBATION): inactive; negative; mutagenic call (Test System: AMES SALMONELLA TYPHIMURIUM, Strain/Indicator: TA97, Metabolic Activation: RAT, LIVER, S-9, AROCLOR 1254 (30%), Method: PREINCUBATION): inactive; negative; mutagenic call (Test System: AMES SALMONELLA TYPHIMURIUM, Strain/Indicator: TA1535, Metabolic Activation: HAMSTER, LIVER, S-9, AROCLOR 1254 (30%), Method: PREINCUBATION): inactive; negative; mutagenic call (Test System: AMES SALMONELLA TYPHIMURIUM, Strain/Indicator: TA1535, Metabolic Activation: RAT, LIVER, S-9, AROCLOR 1254 (30%), Method: PREINCUBATION): inactive; negative |
| CCn1cc(C(=O)O)c(=O)c2cc(F)c(N3CCNC(C)C3)c(F)c21 (centres undefined) | – | – | – | – | – | – | – | – | – | – | – | – | – | – | – | – | inactive; negative | inactive; negative | mutagenic call (Test System: AMES SALMONELLA TYPHIMURIUM, Strain/Indicator: TA98, Metabolic Activation: RAT, LIVER, S-9, PHENOBARBITAL, Method: STANDARD PLATE): inactive; negative; mutagenic call (Test System: AMES SALMONELLA TYPHIMURIUM, Strain/Indicator: TA100, Metabolic Activation: RAT, LIVER, S-9, PHENOBARBITAL, Method: STANDARD PLATE): inactive; negative; mutagenic call (Test System: AMES SALMONELLA TYPHIMURIUM, Strain/Indicator: TA102, Metabolic Activation: NONE, Method: STANDARD PLATE): active; positive; mutagenic call (Test System: CHINESE HAMSTER V-79, Strain/Indicator: V-79 (HGPRT)/6-THIOGUANINE, Metabolic Activation: NONE, Method: STANDARD PLATE): inactive; negative |
| ClC(Cl)(Cl)Br | – | – | – | – | – | – | – | – | – | – | – | – | – | – | – | – | active; positive | inactive; negative | mutagenic call (Test System: AMES SALMONELLA TYPHIMURIUM, Strain/Indicator: TA97, Metabolic Activation: NONE, Method: STANDARD PLATE): active; positive; mutagenic call (Test System: AMES SALMONELLA TYPHIMURIUM, Strain/Indicator: TA97, Metabolic Activation: RAT, LIVER, S-9, AROCLOR 1254, Method: STANDARD PLATE): active; positive; mutagenic call (Test System: AMES SALMONELLA TYPHIMURIUM, Strain/Indicator: TA98, Metabolic Activation: RAT, LIVER, S-9, AROCLOR 1254, Method: STANDARD PLATE): inactive; negative; mutagenic call (Test System: AMES SALMONELLA TYPHIMURIUM, Strain/Indicator: TA100, Metabolic Activation: RAT, LIVER, S-9, AROCLOR 1254, Method: STANDARD PLATE): inactive; negative; mutagenic call (Test System: AMES SALMONELLA TYPHIMURIUM, Strain/Indicator: TA104, Metabolic Activation: NONE, Method: STANDARD PLATE): active; positive; mutagenic call (Test System: AMES SALMONELLA TYPHIMURIUM, Strain/Indicator: TA104, Metabolic Activation: RAT, LIVER, S-9, AROCLOR 1254, Method: STANDARD PLATE): active; positive |
| Clc1cccc(C(Cl)(Cl)Cl)n1 | inactive; negative | inactive; negative | inactive; negative | active; positive | active; positive | inactive; negative | active; positive | active; positive | – | active; positive | inactive; negative | – | inactive; negative | inactive; negative | inactive; negative | inactive; negative | – | – | mutagenic call (Test System: AMES SALMONELLA TYPHIMURIUM, Strain/Indicator: TA98, Metabolic Activation: HAMSTER, LIVER, S-9, AROCLOR 1254 (5%), Method: PREINCUBATION): inactive; negative; mutagenic call (Test System: AMES SALMONELLA TYPHIMURIUM, Strain/Indicator: TA98, Metabolic Activation: RAT, LIVER, S-9, AROCLOR 1254 (5%), Method: PREINCUBATION): inactive; negative; mutagenic call (Test System: AMES SALMONELLA TYPHIMURIUM, Strain/Indicator: TA100, Metabolic Activation: HAMSTER, LIVER, S-9, AROCLOR 1254 (5 OR 10%), Method: PREINCUBATION): inactive; negative; mutagenic call (Test System: AMES SALMONELLA TYPHIMURIUM, Strain/Indicator: TA100, Metabolic Activation: RAT, LIVER, S-9, AROCLOR 1254 (5 OR 10%), Method: PREINCUBATION): inactive; negative |
| O=C1c2ccccc2-c2ccc3c4c(ccc1c24)-c1ccccc1C3=O | – | – | – | inactive; negative | – | inactive; negative | inactive; negative | – | inactive; negative | – | inactive; negative | inactive; negative | – | inactive; negative | inactive; negative | inactive; negative | – | – | mutagenic call (Test System: AMES SALMONELLA TYPHIMURIUM, Strain/Indicator: TA1537, Metabolic Activation: HAMSTER, LIVER, S-9, AROCLOR 1254 (10%), Method: PREINCUBATION): inactive; negative; mutagenic call (Test System: AMES SALMONELLA TYPHIMURIUM, Strain/Indicator: TA1537, Metabolic Activation: NONE, Method: PREINCUBATION): inactive; negative; mutagenic call (Test System: AMES SALMONELLA TYPHIMURIUM, Strain/Indicator: TA1537, Metabolic Activation: RAT, LIVER, S-9, AROCLOR 1254 (10%), Method: PREINCUBATION): inactive; negative; mutagenic call (Test System: MOUSE LYMPHOMA, Strain/Indicator: L5178Y (TK+/TK-), Metabolic Activation: RAT, LIVER, S-9, AROCLOR, Method: SUSPENSION/PLATE): active; positive |
